Here are results for 18 compounds from ChEMBL document CHEMBL1135363, “N-acyl-L-phenylalanine derivatives as potent VLA-4 antagonists that mimic a cyclic peptide conformation” (Bioorg Med Chem Lett, 2002).

Test [1] concerns the target T1, Integrin alpha-4/beta-1 (Homo sapiens, UniProt P05556+P13612). Briefly: Concentration required to inhibit the VCAM-Very late antigen4 (VLA4) interaction in Ramos cell-based assay. The class given is functional.
In test [2] the target is T1, Integrin alpha-4/beta-1. The test can be described thus: Concentration required to inhibit the VCAM-Very late antigen4 (VLA4) interaction in ELISA cell-based assay. Format: functional.

T1 sequence (P05556 whole entry): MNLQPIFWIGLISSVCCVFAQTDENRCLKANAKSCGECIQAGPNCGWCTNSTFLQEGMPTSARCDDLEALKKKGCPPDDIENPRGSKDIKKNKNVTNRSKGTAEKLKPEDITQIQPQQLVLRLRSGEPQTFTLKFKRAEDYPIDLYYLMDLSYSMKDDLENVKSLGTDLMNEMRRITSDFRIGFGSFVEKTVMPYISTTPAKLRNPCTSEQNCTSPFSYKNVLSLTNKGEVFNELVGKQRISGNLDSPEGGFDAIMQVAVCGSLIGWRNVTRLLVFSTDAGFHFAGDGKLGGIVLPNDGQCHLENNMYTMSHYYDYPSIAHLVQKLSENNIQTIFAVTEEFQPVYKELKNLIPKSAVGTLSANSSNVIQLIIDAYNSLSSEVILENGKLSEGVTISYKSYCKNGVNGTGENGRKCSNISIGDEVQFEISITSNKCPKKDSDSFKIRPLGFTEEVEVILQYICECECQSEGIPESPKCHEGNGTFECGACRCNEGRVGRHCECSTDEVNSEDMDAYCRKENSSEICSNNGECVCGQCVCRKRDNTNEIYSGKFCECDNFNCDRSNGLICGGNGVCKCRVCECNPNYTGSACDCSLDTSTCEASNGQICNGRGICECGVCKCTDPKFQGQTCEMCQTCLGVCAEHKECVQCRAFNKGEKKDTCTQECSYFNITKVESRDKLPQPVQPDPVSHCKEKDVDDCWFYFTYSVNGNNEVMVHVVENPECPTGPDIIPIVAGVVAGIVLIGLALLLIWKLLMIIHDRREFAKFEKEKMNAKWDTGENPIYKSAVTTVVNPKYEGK
T1 sequence (P13612 whole entry): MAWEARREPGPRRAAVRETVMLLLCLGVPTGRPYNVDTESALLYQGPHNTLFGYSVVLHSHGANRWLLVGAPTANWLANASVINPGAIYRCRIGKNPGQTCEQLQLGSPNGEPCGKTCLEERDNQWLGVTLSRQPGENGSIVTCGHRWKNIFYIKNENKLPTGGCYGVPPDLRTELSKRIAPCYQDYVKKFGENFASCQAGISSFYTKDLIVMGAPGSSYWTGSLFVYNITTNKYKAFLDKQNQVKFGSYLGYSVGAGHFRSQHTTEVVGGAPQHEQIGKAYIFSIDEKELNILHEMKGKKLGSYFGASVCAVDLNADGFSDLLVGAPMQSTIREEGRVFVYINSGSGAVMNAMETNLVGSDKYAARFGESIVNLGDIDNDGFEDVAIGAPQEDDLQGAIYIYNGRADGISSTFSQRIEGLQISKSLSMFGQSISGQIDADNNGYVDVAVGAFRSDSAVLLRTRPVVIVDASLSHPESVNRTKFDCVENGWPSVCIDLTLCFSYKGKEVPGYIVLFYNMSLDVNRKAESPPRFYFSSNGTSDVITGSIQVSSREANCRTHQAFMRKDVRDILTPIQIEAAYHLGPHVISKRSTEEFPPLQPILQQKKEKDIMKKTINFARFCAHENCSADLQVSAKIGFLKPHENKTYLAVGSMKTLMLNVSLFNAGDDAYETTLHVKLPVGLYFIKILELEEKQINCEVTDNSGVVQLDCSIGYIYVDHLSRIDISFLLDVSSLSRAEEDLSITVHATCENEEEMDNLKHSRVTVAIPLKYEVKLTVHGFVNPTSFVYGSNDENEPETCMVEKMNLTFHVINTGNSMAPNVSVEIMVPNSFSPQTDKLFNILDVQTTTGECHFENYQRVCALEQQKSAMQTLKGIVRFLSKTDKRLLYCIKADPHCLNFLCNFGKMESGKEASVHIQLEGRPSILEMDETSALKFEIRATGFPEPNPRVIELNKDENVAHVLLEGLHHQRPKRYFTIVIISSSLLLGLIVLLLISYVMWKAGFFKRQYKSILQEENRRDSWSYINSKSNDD

Take `CCN(CC)C(=O)C(Cc1ccc(O)cc1)NC(=O)c1ccc(C[C@H](NC(=O)[C@@H]2CCC(=O)N2Cc2ccccc2)C(=O)O)cc1` (stereo not given in full): the IC50 at Integrin alpha-4/beta-1 [1] was found to be 0.55 µM; at Integrin alpha-4/beta-1 [2] it was 0.005 µM.
As for `O=C(O)[C@H](Cc1ccc(C(=O)N2CCN(C(=O)c3ccccc3)CC2)cc1)NC(=O)[C@@H]1CCC(=O)N1Cc1ccccc1`, the concentration for half-maximal inhibition (IC50) against Integrin alpha-4/beta-1 [1] turned out to be 0.96 µM; on Integrin alpha-4/beta-1 [2], 0.003 µM.
At Integrin alpha-4/beta-1 [2], `COc1ccc(CNC(=O)c2ccc(C[C@H](NC(=O)[C@@H]3CCC(=O)N3Cc3ccccc3)C(=O)O)cc2)cc1` registered a half-maximal inhibitory concentration (IC50) of 0.061 µM.
Regarding `CCN(CC)C(=O)C(Cc1ccc(O)cc1)NC(=O)c1cccc(C[C@H](NC(=O)[C@@H]2CCC(=O)N2Cc2ccccc2)C(=O)O)c1` (stereo not given in full), the IC50 against Integrin alpha-4/beta-1 [1] was determined as 24.4 µM; against Integrin alpha-4/beta-1 [2], 0.24 µM.
Regarding `CC(=O)c1ccccc1NC(=O)c1ccc(C[C@H](NC(=O)[C@@H]2CCC(=O)N2Cc2ccccc2)C(=O)O)cc1`, the IC50 was 0.94 µM on Integrin alpha-4/beta-1 [1] and 0.004 µM at Integrin alpha-4/beta-1 [2].
Taken in the same sequence, the figures for `O=C(O)[C@H](Cc1ccc(C(=O)N2CCN(S(=O)(=O)c3ccccc3)CC2)cc1)NC(=O)[C@@H]1CCC(=O)N1Cc1ccccc1` were 2.2 µM and 0.011 µM.
Taken in the same sequence, the figures for `CC(=O)N[C@@H](Cc1ccc(O)cc1)C(=O)Nc1ccc(C[C@H](NC(=O)[C@H]2CCC(=O)N2Cc2ccccc2)C(=O)O)cc1` were 2.1 µM and 0.0065 µM.
For `O=C(O)[C@H](Cc1ccc(C(=O)N2CCN(C(=O)c3ccc(O)cc3)CC2)cc1)NC(=O)[C@@H]1CCC(=O)N1Cc1ccccc1`, the IC50 on Integrin alpha-4/beta-1 [1] worked out at 1.7 µM; on Integrin alpha-4/beta-1 [2] it was 0.003 µM.
Take `C[C@H](NC(=O)c1ccc(C[C@H](NC(=O)[C@@H]2CCC(=O)N2Cc2ccccc2)C(=O)O)cc1)c1ccccc1`: on Integrin alpha-4/beta-1 [2], the half-inhibitory concentration (IC50) was determined as 0.027 µM.
Compound `O=C(Nc1ccccc1)c1ccc(C[C@H](NC(=O)[C@@H]2CCC(=O)N2Cc2ccccc2)C(=O)O)cc1` returned an IC50 against Integrin alpha-4/beta-1 [2] of 0.057 µM.
Still for that read-out and setting: next, `O=C(O)[C@H](Cc1cccc(C(=O)N2CCN(C(=O)c3ccccc3)CC2)c1)NC(=O)[C@@H]1CCC(=O)N1Cc1ccccc1`: 0.12 µM.
As for `COc1ccc(C(=O)N2CCN(C(=O)c3ccc(C[C@H](NC(=O)[C@@H]4CCC(=O)N4Cc4ccccc4)C(=O)O)cc3)CC2)cc1`, the half-inhibitory concentration (IC50) at Integrin alpha-4/beta-1 [1] amounted to 0.32 µM; at Integrin alpha-4/beta-1 [2], 0.004 µM.
For `O=C(Nc1ccc(C[C@H](NC(=O)[C@H]2CCC(=O)N2Cc2ccccc2)C(=O)O)cc1)c1c(Cl)cccc1Cl`, on Integrin alpha-4/beta-1 [2], the half-maximal inhibitory concentration (IC50) was 0.00037 µM.
Consider `CC(=O)N1CCN(C(=O)c2ccc(C[C@H](NC(=O)[C@@H]3CCC(=O)N3Cc3ccccc3)C(=O)O)cc2)CC1`, for which the values for the IC50 against Integrin alpha-4/beta-1 [1] and against Integrin alpha-4/beta-1 [2] were 5.5 µM and 0.007 µM, respectively.
Turning to `COc1ccc(S(=O)(=O)N2CCN(C(=O)c3ccc(C[C@H](NC(=O)[C@@H]4CCC(=O)N4Cc4ccccc4)C(=O)O)cc3)CC2)cc1`, the concentration for half-maximal inhibition (IC50) against Integrin alpha-4/beta-1 [1] is 9.53 µM; on Integrin alpha-4/beta-1 [2], 0.012 µM.
On the same counts, the results for `O=C(O)[C@H](Cc1ccc(C(=O)N2CCN(C(=O)c3cccc(O)c3)CC2)cc1)NC(=O)[C@@H]1CCC(=O)N1Cc1ccccc1` are 0.47 µM and 0.003 µM.
Compound `O=C(O)[C@H](Cc1cccc(C(=O)N2CCN(S(=O)(=O)c3ccccc3)CC2)c1)NC(=O)[C@@H]1CCC(=O)N1Cc1ccccc1` returned an IC50 on Integrin alpha-4/beta-1 [2] of 0.06 µM.
As for `COc1ccc(S(=O)(=O)N2CCN(C(=O)c3cccc(C[C@H](NC(=O)[C@@H]4CCC(=O)N4Cc4ccccc4)C(=O)O)c3)CC2)cc1`, the IC50 against Integrin alpha-4/beta-1 [1] is 7.8 µM; against Integrin alpha-4/beta-1 [2] it was 0.073 µM.
